Results from ChEMBL document CHEMBL5316315 (J Med Chem, 2023).
pIC50: −log10 of the molar value. Each block holds one compound with its values, some of them ahead of it. The source made the active and inactive calls. The calls are words filed in the database; no cut-off is given here.

How the values were obtained:
[1] = Toxicity in Balb/c mouse assessed as effect on body weight loss at 100 to 200 mg/kg, po administered as single dose for 2 weeks; assay type: organism-based; conditions: in vivo, 336 h, dose 100-200 mg/kg
[2] = AUClast in CD-1 mouse at 25 mg/kg, po measured upto 24 hrs; assay type: ADME, organism-based; set-up: time < 24 hrs, dose 25 mg/kg, route po; conditions: in vivo
[3] = Tmax in CD-1 mouse at 25 mg/kg, po measured upto 24 hrs; assay type: ADME, organism-based; conditions: in vivo
[4] = Drug concentration in CD-1 mouse plasma at 25 mg/kg, po measured after 4 hrs; assay type: ADME, organism-based
[5] = Toxicity in Balb/c mouse assessed as animal death at 400 mg/kg, po administered as single dose and measured 15 mins post administration; assay type: organism-based; conditions: in vivo, 0.25 h
[6] = Toxicity in Balb/c mouse assessed as effect on bright behaviour at 250 to 350 mg/kg, po administered as single dose for 2 weeks; assay type: organism-based; conditions: in vivo, 336 h, dose 250-350 mg/kg
[7] = Half-life in CD-1 mouse at 25 mg/kg, po measured upto 24 hrs; assay type: ADME, organism-based; conditions: in vivo
[8] = Dose normalized AUClast in CD-1 mouse at 25 mg/kg, po measured upto 24 hrs; assay type: ADME, organism-based; conditions: in vivo
[9] = Toxicity in Balb/c mouse assessed as effect on body weight loss at 250 to 350 mg/kg, po administered as single dose for 2 weeks; assay type: organism-based; conditions: in vivo, 336 h, dose 250-350 mg/kg
[10] = Toxicity in Balb/c mouse assessed as effect on alert behaviour at 250 to 350 mg/kg, po administered as single dose for 2 weeks; assay type: organism-based; conditions: in vivo, 336 h, dose 250-350 mg/kg
[11] = Toxicity in Balb/c mouse assessed as effect on response at 100 to 200 mg/kg, po administered as single dose for 2 weeks; assay type: organism-based; conditions: in vivo, 336 h, dose 100-200 mg/kg
[12] = Toxicity in Balb/c mouse assessed as effect on response at 250 to 350 mg/kg, po administered as single dose for 2 weeks; assay type: organism-based; conditions: in vivo, 336 h, dose 250-350 mg/kg
[13] = target: T1, N-terminal Xaa-Pro-Lys N-methyltransferase 1 (Homo sapiens, UniProt Q9BV86); assay: Inhibition of N-terminal 6-his tagged TEV fused full length human NTMT1 (1 to 222 residues) expressed in Escherichia coli BL21-Codonplus(DE3)-RIL cells using GPKRIA peptide as substrate preincubated with compound for 10 mins followed by substrate addition and measured immediately by SAHH-coupled fluorescence analysis
T1 sequence (Q9BV86 whole entry): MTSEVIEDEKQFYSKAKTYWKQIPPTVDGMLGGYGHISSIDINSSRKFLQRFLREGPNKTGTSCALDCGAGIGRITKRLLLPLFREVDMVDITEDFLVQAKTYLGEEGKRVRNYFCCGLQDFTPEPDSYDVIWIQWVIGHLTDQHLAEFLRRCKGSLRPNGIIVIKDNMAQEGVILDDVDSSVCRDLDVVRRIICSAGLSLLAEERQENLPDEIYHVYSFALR

[14] = target: T2, Ceramide glucosyltransferase (Homo sapiens) (UniProt Q16739); conditions: HCT-116, dose 30.0 nM, time 52.0 hrs
T2 sequence (whole entry): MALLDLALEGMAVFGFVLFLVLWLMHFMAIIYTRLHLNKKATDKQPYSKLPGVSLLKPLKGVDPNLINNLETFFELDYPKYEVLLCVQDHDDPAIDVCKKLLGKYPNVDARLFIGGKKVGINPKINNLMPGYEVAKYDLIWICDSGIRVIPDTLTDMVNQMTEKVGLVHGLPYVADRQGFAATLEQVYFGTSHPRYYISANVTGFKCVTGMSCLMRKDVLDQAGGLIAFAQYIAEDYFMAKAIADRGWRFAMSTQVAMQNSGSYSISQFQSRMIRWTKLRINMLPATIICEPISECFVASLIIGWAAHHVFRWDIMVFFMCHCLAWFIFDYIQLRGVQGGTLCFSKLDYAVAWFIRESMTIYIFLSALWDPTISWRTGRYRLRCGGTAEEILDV

SMILES: CC(C)(NC(=O)O[C@@H]1CN2CCC1CC2)c1csc(-c2ccc(F)c(O)c2)n1
Activity [1]: Non-Toxic
AUC(0-t) at 24 h [2]: 157 ng·h/mL
Tmax [3]: 0.25 h
concentration at 4 h [4]: > 18.8 ng/mL
Activity [5]: Toxic
Activity [6]: Non-Toxic
half-life [7]: 2.63 h
AUClast/dose [8]: 6.27 ng·h/mL
Activity [9]: Non-Toxic
Activity [10]: Non-Toxic
Activity [11]: Non-Toxic
Activity [12]: Non-Toxic

SMILES: CNc1nc(C(C)(C)NC(=O)O[C@@H]2CN3CCC2CC3)cs1
pIC50 [13]: 4.30

SMILES: CC(C)(NC(=O)O[C@@H]1CN2CCC1CC2)c1csc(-c2cccc(O)c2)n1
pIC50 [13]: 6.25

SMILES: CC(C)(NC(=O)O[C@@H]1CN2CCC1CC2)c1csc(-c2ccccn2)n1
pIC50 [13]: 5.43

pIC50 [13]: < 4.00
SMILES: CC(C)(NC(=O)Oc1cccnc1)c1csc(-c2ccc(F)cc2)n1

SMILES: CC(C)c1nc(C(C)(C)NC(=O)O[C@@H]2CN3CCC2CC3)cs1
pIC50 [13]: < 4.00

SMILES: CC(C)(NC(=O)O[C@@H]1CN2CCC1CC2)c1csc(-c2cccc([N+](=O)[O-])c2)n1
pIC50 [13]: 4.19

SMILES: CC(C)(NC(=O)O[C@@H]1CN2CCC1CC2)c1csc(-c2ccccc2N)n1
pIC50 [13]: 5.15

SMILES: CC(C)(NC(=O)O[C@@H]1CN2CCC1CC2)c1csc(-c2cccnc2)n1
pIC50 [13]: 5.55

SMILES: CC(C)(NC(=O)O[C@@H]1CN2CCC1CC2)c1csc(-c2ccc(F)cc2)n1
inhibition [14]: Active

SMILES: CC(C)(NC(=O)O[C@@H]1CN2CCC1CC2)c1csc(-c2ccoc2)n1
pIC50 [13]: 4.04

SMILES: COc1ccc(-c2nc(C(C)(C)NC(=O)O[C@@H]3CN4CCC3CC4)cs2)cc1
pIC50 [13]: 4.27

pIC50 [13]: < 4.00
SMILES: CC(C)(NC(=O)OCCN1CCCCC1)c1csc(-c2ccc(F)cc2)n1

pIC50 [13]: 4.74
SMILES: CCCN1CCC[C@H](OC(=O)NC(C)(C)c2csc(-c3ccc(F)cc3)n2)C1

SMILES: CC(C)(NC(=O)O[C@@H]1CN2CCC1CC2)c1csc(-c2ccccc2O)n1
pIC50 [13]: 5.34

SMILES: CC(C)(NC(=O)O[C@@H]1CN2CCC1CC2)c1csc(-c2ccc(F)cc2O)n1
pIC50 [13]: 6.52

SMILES: CC(C)(NC(=O)O[C@@H]1CN2CCC1CC2)c1csc(-c2cccs2)n1
pIC50 [13]: 5.62

SMILES: O=C(NCc1csc(-c2ccc(F)cc2)n1)O[C@@H]1CN2CCC1CC2
pIC50 [13]: < 4.00

SMILES: CC(C)(NC(=O)N[C@@H]1CN2CCC1CC2)c1csc(-c2ccc(F)cc2)n1
pIC50 [13]: 4.40

SMILES: CC(C)(NC(=O)O[C@@H]1CN2CCC1CC2)c1csc(-c2ccc(N)cc2)n1
pIC50 [13]: 5.12

SMILES: CC(C)(NC(=O)O[C@@H]1CN2CCC1CC2)c1csc(-c2cncnc2)n1
pIC50 [13]: < 4.00

SMILES: CC(C)(NC(=O)O[C@@H]1CN2CCC1CC2)c1csc(-c2cccc(N)c2)n1
pIC50 [13]: 5.12

SMILES: CC(C)(C(=O)N[C@@H]1CN2CCC1CC2)c1csc(-c2ccc(F)cc2)n1
pIC50 [13]: < 4.00

SMILES: CC(C)(NC(=O)O[C@@H]1CN2CCC1CC2)c1csc(I)n1
pIC50 [13]: 4.34

SMILES: CC(C)(NC(=O)O[C@@H]1CN2CCC1CC2)c1csc(-c2ccc(F)nc2)n1
pIC50 [13]: 5.82

SMILES: CC(C)(NC(=O)O[C@@H]1CN2CCC1CC2)c1csc(-c2ccc(O)cc2)n1
pIC50 [13]: 4.60

SMILES: CC(C)(NC(=O)O[C@@H]1CN2CCC1CC2)c1csc(-c2ccc(C(=O)O)cc2)n1
pIC50 [13]: < 4.00

SMILES: CC(C)(NC(=O)O[C@@H]1CN2CCC1CC2)c1csc(-c2ccsc2)n1
pIC50 [13]: 5.04

SMILES: CC(C)(NC(=O)O[C@@H]1CN2CCC1CC2)c1csc(-c2ccco2)n1
pIC50 [13]: 4.68

SMILES: CC(C)(NC(=O)O[C@@H]1CN2CCC1CC2)c1csc(-c2cccc3ccccc23)n1
pIC50 [13]: 4.36

pIC50 [13]: < 4.00
SMILES: CC(C)(NC(=O)O[C@H]1CCCNC1)c1csc(-c2ccc(F)cc2)n1

pIC50 [13]: 4.60
SMILES: CN1CCC[C@H](OC(=O)NC(C)(C)c2csc(-c3ccc(F)cc3)n2)C1
